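Growth conditions: 96-well plates. Treatment: test compound, 48 hours, 5 concentrations. Analysis: linear interpolation between bracketing concentrations; unreached endpoints set to highest concentration. The concentration for full growth arrest is given as TGI.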
How the values were obtained:
Assay in all cases: NCI-60 cell line screen, 48 h
786-0 renal = system: 786-0 renal
A498 renal = system: A498 renal
A549 NSCLC = system: A549 NSCLC
ACHN renal = system: ACHN renal
CAKI-1 renal = system: CAKI-1 renal
CCRF-CEM leukemia = system: CCRF-CEM leukemia
COLO 205 colon = system: COLO 205 colon
DLD-1 colon = system: DLD-1 colon
DMS 114 small cell lung = system: DMS 114 small cell lung
EKVX NSCLC = system: EKVX NSCLC
HCC-2998 colon = system: HCC-2998 colon
HCT-116 colon = system: HCT-116 colon
HCT-15 colon = system: HCT-15 colon
HL-60(TB) leukemia = system: HL-60(TB) leukemia
HOP-18 NSCLC = system: HOP-18 NSCLC
HOP-62 NSCLC = system: HOP-62 NSCLC
HOP-92 NSCLC = system: HOP-92 NSCLC
HT29 colon = system: HT29 colon
IGROV1 ovarian = system: IGROV1 ovarian
K-562 leukemia = system: K-562 leukemia
KM12 colon = system: KM12 colon
KM20L2 colon = system: KM20L2 colon
LOX IMVI melanoma = system: LOX IMVI melanoma
LXFL 529 NSCLC = system: LXFL 529 NSCLC
M14 melanoma = system: M14 melanoma
M19-MEL melanoma = system: M19-MEL melanoma
MALME-3M melanoma = system: MALME-3M melanoma
MOLT-4 leukemia = system: MOLT-4 leukemia
NCI-H226 lung = system: NCI-H226 lung
NCI-H23 lung = system: NCI-H23 lung
NCI-H460 lung = system: NCI-H460 lung
NCI-H522 lung = system: NCI-H522 lung
OVCAR-3 ovarian = system: OVCAR-3 ovarian
OVCAR-4 ovarian = system: OVCAR-4 ovarian
OVCAR-5 ovarian = system: OVCAR-5 ovarian
OVCAR-8 ovarian = system: OVCAR-8 ovarian
RPMI-8226 leukemia = system: RPMI-8226 leukemia
RXF 393 renal = system: RXF 393 renal
RXF-631 renal = system: RXF-631 renal
SF-268 CNS = system: SF-268 CNS
SF-295 CNS = system: SF-295 CNS
SF-539 CNS = system: SF-539 CNS
SK-MEL-2 melanoma = system: SK-MEL-2 melanoma
SK-MEL-28 melanoma = system: SK-MEL-28 melanoma
SK-MEL-5 melanoma = system: SK-MEL-5 melanoma
SK-OV-3 ovarian = system: SK-OV-3 ovarian
SN12C renal = system: SN12C renal
SNB-19 CNS = system: SNB-19 CNS
SNB-75 CNS = system: SNB-75 CNS
SNB-78 CNS = system: SNB-78 CNS
SR leukemia = system: SR leukemia
SW-620 colon = system: SW-620 colon
TK-10 renal = system: TK-10 renal
U251 CNS = system: U251 CNS
UACC-257 melanoma = system: UACC-257 melanoma
UACC-62 melanoma = system: UACC-62 melanoma
UO-31 renal = system: UO-31 renal
XF 498 CNS = system: XF 498 CNS
DMS 273 small cell lung = system: DMS 273 small cell lung

## COc1ccc(/C=C(\NC(=O)c2ccccc2)c2nc3ccccc3[nH]2)cc1OC
786-0 renal
  TGI: > 100 µM
A498 renal
  TGI: > 100 µM
A549 NSCLC
  TGI: > 100 µM
ACHN renal
  TGI: > 100 µM
CAKI-1 renal
  TGI: > 100 µM
CCRF-CEM leukemia
  TGI: > 100 µM
COLO 205 colon
  TGI: > 100 µM
DLD-1 colon
  TGI: > 100 µM
DMS 114 small cell lung
  TGI: > 100 µM
EKVX NSCLC
  TGI: > 100 µM
HCC-2998 colon
  TGI: > 100 µM
HCT-116 colon
  TGI: > 100 µM
HCT-15 colon
  TGI: > 100 µM
HL-60(TB) leukemia
  TGI: > 100 µM
HOP-18 NSCLC
  TGI: > 100 µM
HOP-62 NSCLC
  TGI: > 100 µM
HOP-92 NSCLC
  TGI: > 100 µM
HT29 colon
  TGI: > 100 µM
IGROV1 ovarian
  TGI: > 100 µM
K-562 leukemia
  TGI: > 100 µM
KM12 colon
  TGI: > 100 µM
KM20L2 colon
  TGI: > 100 µM
LOX IMVI melanoma
  TGI: > 100 µM
LXFL 529 NSCLC
  TGI: > 100 µM
M14 melanoma
  TGI: > 100 µM
M19-MEL melanoma
  TGI: > 100 µM
MALME-3M melanoma
  TGI: > 100 µM
MOLT-4 leukemia
  TGI: > 100 µM
NCI-H226 lung
  TGI: > 100 µM
NCI-H23 lung
  TGI: > 100 µM
NCI-H460 lung
  TGI: > 100 µM
NCI-H522 lung
  TGI: > 100 µM
OVCAR-3 ovarian
  TGI: > 100 µM
OVCAR-4 ovarian
  TGI: > 100 µM
OVCAR-5 ovarian
  TGI: > 100 µM
OVCAR-8 ovarian
  TGI: > 100 µM
RPMI-8226 leukemia
  TGI: > 100 µM
RXF 393 renal
  TGI: > 100 µM
RXF-631 renal
  TGI: > 100 µM
SF-268 CNS
  TGI: > 100 µM
SF-295 CNS
  TGI: > 100 µM
SF-539 CNS
  TGI: > 100 µM
SK-MEL-2 melanoma
  TGI: > 100 µM
SK-MEL-28 melanoma
  TGI: > 100 µM
SK-MEL-5 melanoma
  TGI: > 100 µM
SK-OV-3 ovarian
  TGI: > 100 µM
SN12C renal
  TGI: > 100 µM
SNB-19 CNS
  TGI: > 100 µM
SNB-75 CNS
  TGI: > 100 µM
SNB-78 CNS
  TGI: > 100 µM
SR leukemia
  TGI: > 100 µM
SW-620 colon
  TGI: > 100 µM
TK-10 renal
  TGI: > 100 µM
U251 CNS
  TGI: > 100 µM
UACC-257 melanoma
  TGI: > 100 µM
UACC-62 melanoma
  TGI: > 100 µM
UO-31 renal
  TGI: > 100 µM
XF 498 CNS
  TGI: > 100 µM

## COC(=O)C(C(=O)C(=O)Nc1ccc(C)cc1C)c1csc(-n2nc(-c3ccccc3)cc2-c2ccccc2)n1 (stereo unspecified)
786-0 renal
  TGI: > 100 µM
A498 renal
  TGI: > 100 µM
A549 NSCLC
  TGI: > 100 µM
ACHN renal
  TGI: > 100 µM
CAKI-1 renal
  TGI: > 100 µM
CCRF-CEM leukemia
  TGI: > 100 µM
COLO 205 colon
  TGI: > 100 µM
DLD-1 colon
  TGI: > 100 µM
DMS 114 small cell lung
  TGI: > 100 µM
DMS 273 small cell lung
  TGI: > 100 µM
EKVX NSCLC
  TGI: > 100 µM
HCC-2998 colon
  TGI: > 100 µM
HCT-116 colon
  TGI: > 100 µM
HCT-15 colon
  TGI: > 100 µM
HL-60(TB) leukemia
  TGI: > 100 µM
HOP-18 NSCLC
  TGI: > 100 µM
HOP-62 NSCLC
  TGI: > 100 µM
HOP-92 NSCLC
  TGI: > 100 µM
HT29 colon
  TGI: > 100 µM
IGROV1 ovarian
  TGI: > 100 µM
K-562 leukemia
  TGI: > 100 µM
KM12 colon
  TGI: > 100 µM
KM20L2 colon
  TGI: > 100 µM
LOX IMVI melanoma
  TGI: > 100 µM
LXFL 529 NSCLC
  TGI: > 100 µM
M14 melanoma
  TGI: > 100 µM
M19-MEL melanoma
  TGI: > 100 µM
MALME-3M melanoma
  TGI: > 100 µM
MOLT-4 leukemia
  TGI: > 100 µM
NCI-H226 lung
  TGI: > 100 µM
NCI-H23 lung
  TGI: > 100 µM
NCI-H460 lung
  TGI: > 100 µM
NCI-H522 lung
  TGI: > 100 µM
OVCAR-3 ovarian
  TGI: > 100 µM
OVCAR-4 ovarian
  TGI: > 100 µM
OVCAR-5 ovarian
  TGI: > 100 µM
OVCAR-8 ovarian
  TGI: > 100 µM
RXF 393 renal
  TGI: > 100 µM
RXF-631 renal
  TGI: > 100 µM
SF-268 CNS
  TGI: > 100 µM
SK-OV-3 ovarian
  TGI: > 100 µM
SN12C renal
  TGI: > 100 µM
SNB-19 CNS
  TGI: > 100 µM
SNB-75 CNS
  TGI: 52.6 µM
SNB-78 CNS
  TGI: > 100 µM
SR leukemia
  TGI: > 100 µM
SW-620 colon
  TGI: > 100 µM
TK-10 renal
  TGI: > 100 µM
U251 CNS
  TGI: > 100 µM
UACC-257 melanoma
  TGI: > 100 µM
UACC-62 melanoma
  TGI: > 100 µM
UO-31 renal
  TGI: > 100 µM
XF 498 CNS
  TGI: > 100 µM
